17 compounds from EP0536419B1, “TRICYCLIC TRIAZOLE DERIVATIVES, PRODUCTION AND USE THEREOF” (TORAY INDUSTRIES, INC., priority 1991, dated 1992) can be followed below.

In test [1] the test system is passive cutaneous anaphylaxis (PCA). Description: Test for antiallergic action: rat passive cutaneous anaphylaxis (PCA) reaction. Format: in vivo. To be noted: rats, oral, 50 mg/kg in olive oil, 1 hour before antigen challenge, read-out: Inhibition Rate (%) Anti-PCA. As to the method:
The antiallergic action was evaluated by passive cutaneous anaphylaxis (PCA) test using rats. The test was carried out using Wister male rats having body weights of 150 - 200 g. Physiological saline containing anti-dinitrophenyl group (DNP) mouse IgE monoclonal antibody (commercially available from Seikagaku Kogyo Co., Ltd.) was intracutaneously injected in the skin of the back of each rat. Twenty three hours later, a suspension of the test compound in olive oil was orally administered at a dose of 50 mg/kg to each rat. One hour later, 0.5 ml of physiological saline containing 2 mg/ml of ovalbumin modified with dinitrophenyl hapten and 1% Evans blue were administered to each rat via femoral vein. Thirty minutes later, the rat was killed by cutting the carotid artery. The skin was peeled off and the portion stained in blue was cut out. The cut out portion was minced in […] and the pigment was extracted at 60°C for 48 hours. The minced skin was removed by centrifugation (1500 x g, 10 min.) and the absorbance at 620 nm of the supernatant was measured. Based on a preliminarily prepared calibration curve, the pigment leaked to the topical portion was quantified. As a control, olive oil alone was administered and the ratio of the amount of the pigment in test groups to the amount of the pigment in control group is expressed as inhibition rate.

In the next test the test system is histamine. Kind of test: Histamine-antagonizing action: histamine-induced skin pigment leakage in rats. Format: in vivo. As to conditions: Rattus norvegicus, oral, 50 mg/kg in olive oil, 1 hour before intracutaneous histamine (50 µl of 900 µM), read-out: Inhibition Rate (%) Antihistamine. As to the method: A suspension of a test compound in olive oil was orally administered at a dose of 50 mg/kg to each rat of the same kind as those used in 1. One hour later, physiological saline containing 1% Evans blue was intravenously administered at a dose of 3 ml/kg. Immediately thereafter, 50 µl of 900 µM histamine solution was intracutaneously administered to each rat. Thirty minutes later, the pigment in the blue-stained portion in the skin was extracted and quantified as mentioned above. Using the amount of the pigment when olive oil was administered as control, the inhibition rate which is the ratio of the amount of the pigment when the test compound was administered to the control was calculated.

For the next test, the target named is rabbit platelets (Oryctolagus cuniculus, UniProt G1TEI7). Kind of test: in vitro platelet agglutination inhibition test (PAF-induced). It is filed as cell-based. To be noted: rabbit platelet-rich plasma, PAF final concentration 10 ng/ml, 37°C; read-out: PAF-Induced Platelet Aggregation IC50 (converted).
Sequence of rabbit platelets (G1TEI7 1-342): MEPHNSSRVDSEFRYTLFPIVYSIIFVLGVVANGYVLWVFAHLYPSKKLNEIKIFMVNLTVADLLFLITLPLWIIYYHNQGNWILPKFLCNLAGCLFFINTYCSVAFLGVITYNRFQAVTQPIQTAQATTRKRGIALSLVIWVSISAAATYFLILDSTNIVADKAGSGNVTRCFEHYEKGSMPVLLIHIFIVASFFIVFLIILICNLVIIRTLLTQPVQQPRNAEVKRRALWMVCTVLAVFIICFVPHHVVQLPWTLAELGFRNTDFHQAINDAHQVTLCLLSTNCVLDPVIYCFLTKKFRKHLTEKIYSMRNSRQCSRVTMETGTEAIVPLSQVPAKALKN
For the next test, the target named is T1, PAF receptor (Oryctolagus cuniculus, UniProt G1TEI7).
T1 construct: Cell membrane fraction of rabbit platelets was prepared; from tissue; host or cells: rabbit platelets (cell membrane fraction)
T1 sequence (G1TEI7 1-342): as above
Kind of test: Binding test using [3H]-PAF (PAF receptor binding test). Also on record: species or system rabbit.

For test [2], the system named is PAF-induced Bronchial Hyperresponsiveness. Description: PAF-induced bronchial hyperresponsiveness model in guinea pigs. Format: in vivo. As to conditions: oral, ratio of Ach threshold value after/before PAF inhalation. As to the method:
The test was carried out using Hartley male guinea pigs having body weights of 300 - 400 g.
Guinea pigs were retained on body plethysmo boxes without anesthesia and the respiratory resistances (Rrs) were determined by osscilation method. […] The Ach threshold value which is required for the Rrs to reach 1.5 cm H2O/ml/sec was determined. […] The Ach threshold value means the value calculated taking the value when a guinea pig is made to inhale 1000 ug/ml of Ach aerosol for 1 minute as 1 unit. The above-described operation was carried out using Animal Ast (registered trademark) commercially available from Chest M. I. Co., Ltd.
By the method of A), the bronchial responsiveness of guinea pigs, that is, the Ach threshold values were determined. Subsequently, each animal was made to inhale aerosol of 100 µg/ml of PAF solution for 10 minutes. Forty minutes after the completion of the inhalation, the bronchial responsiveness was again measured by the method of A). The bronchial hyperresponsiveness was detected based on the ratio between the Ach threshold value before and after the inhalation of PAF (Ach respiration threshold value after inhalation of PAF/Ach respiration threshold value before inhalation of […]; Post/Pre value). That is, if the bronchial hyperresponsiveness is strongly promoted, the Post/Pre value is lower than 1.0, and if it is not promoted, the Post/Pre value is about 1.0. A suspension of a test compound in olive oil was orally administered to each guinea pig and the determined Post/Pre value was compared with that of the control group to which olive oil was administered to evaluate the inhibition effect. […]

Where [3] appears, read: rabbit platelet membrane fraction, [3H]-PAF 0.4 nM, 25°C, 60 minutes, read-out: Receptor Binding Inhibition IC50 (converted).

Structures can show the parent of a compound that is named as a salt. Where two headings read alike, the source gives them in different places.

Protocol for PAF receptor: Binding Test Using [^3H]-PAF (PAF receptor binding test)
Cell membrane fraction of rabbit platelets was prepared in accordance with the method by Hwang et al (Biochemistry; 22; 4756, (1983)). In 10 mM Tris buffer containing 0.25% bovine serum albumin, 50 mg of this membrane fraction was suspended and tritium-labelled PAF [^3H]-PAF; 0.4 nM) and a test compound were added thereto. After incubating the resulting mixture at 25°C for 60 minutes, the mixture was subjected to filtration through a filter paper made of glass fibers. The filter paper was washed with cold Tris buffer three times and then transferred to a vial. A scintillator was added thereto and the dose of radioactivity was measured with a liquid scintillation counter. The inhibition rate (binding ability) of the test compound was calculated according to the following equation and IC50 values were determined by interpolation. Inhibition Rate (%) = {1 - [((A - B))/((C - B))]} x 100 [formula] (wherein A represents amount bound in the presence of the compound, B represents amount bound by non-specific binding which is the dose of [^3H]-PAF bound radioactivity in the presence of 1 µM of PAF, and C represents total amount bound which is the dose of [^3H]-PAF bound radioactivity.
As a control agent, WEB2086 (Japanese Laid-open Patent Application (Kokai) No. 65-176591) disclosed as a PAF-antagonist was used.
Protocol for rabbit platelets: To determine the PAF-antagonizing property of the compounds, the PAF-induced agglutination of rabbit platelets in vitro is utilized. To obtain platelet-rich plasma (PRP), venous blood is taken from rabbit auricular vein into a plastic centrifugal tube containing 1.0% sodium citrate solution. The ratio of sodium citrate solution to blood is 1:10. The obtained citrate-containing blood is centrifuged at 70 x g (625 rpm) at room temperature for 20 minutes and the PRP in the upper layer is transferred to another plastic tube. The remaining lower layer is further centrifuged at 1500 x g (2800 rpm) for 10 minutes and the platelet poor plasma (PPP) in the upper layer is recovered. The platelet agglutination is measured by using aggregometer commercially available from Niko Bioscience, Inc. An aliquote of the PRP is poured into a cubette for measurement. Immediately thereafter, aspirin, creatinin phosphate and creatinin phosphokinase are added to final concentrations of 0.1 mM, 7 mM and 45 U/ml, respectively. Then a solution of a test compound is added and the resulting mixture is stirred at 37°C for 2 minutes. To the resultant, PAF (final concentration: 10 ng/ml) is added to induce platelet aggregation. The platelet aggregation rate is calculated from the relative maximum value in each aggregation curve taking the transmittance of PPP as the maximum aggregation (100% aggregation). Using the aggregation rate when physiological saline was added as a control, the inhibition rate which was the ratio of the aggregation rate when the test compound was added to the control was calculated and the IC50 values were determined by interpolation.

For `Cc1nnc2c(=O)n(CCCN3CCC(=C(c4ccccc4)c4ccccc4)CC3)c3ccccc3n12` [Compound 4, 4,5-dihydro-1-methyl-5-[3-[4-(diphenylmethylene)piperidin-1-yl]propyl][1,2,4]triazolo[4,3-a] quinoxalin-4(5H)-one], the inhibition at 50 mg/kg in test [1] was 44%; in the test with histamine it was 76%. Besides, the concentration for half-maximal inhibition (IC50) on rabbit platelets is 4080 nM; on PAF receptor (setting [3]), 2040 nM.
Turning to `Cc1nnc2n1-c1ccccc1N(CCCN1CCN(C(c3ccc(F)cc3)c3ccc(F)cc3)CC1)C2` [Compound 45, 4,5-dihydro-1-methyl-5-[3-[4-[bis(4-fluorophenyl)methyl]piperazin-1-yl]propyl] [1,2,4]triazolo[4,3-a]quinoxaline], the inhibition at 50 mg/kg was 49% in test [1] and 43% in the test with histamine. Moreover, the IC50 on PAF receptor (setting [3]) was 622 nM.
As for `Cc1nnc2n1-c1ccccc1N(CCCN1CCC(=C(c3ccccc3)c3ccccc3)CC1)C2` [Compound 46, 4,5-dihydro-1-methyl-5-[3-[4-(diphenylmethylene)piperidin-1-yl]propyl] [1,2,4]triazolo[4,3-a]quinoxaline], the inhibition at 50 mg/kg was found to be 65% in test [1] and 72% in the test on histamine. Further, on PAF receptor (setting [3]), the IC50 is 378 nM. Besides, the Post/Pre stood at 1.14 in test [2] (Dose 0.1 mg/kg) and 1.64 in test [2] (Dose 0.3 mg/kg).
On to `Cc1nnc2n1-c1ccccc1N(CCCN1CCC(c3c[nH]c4ccccc34)CC1)C2` [Compound 49, 4,5-dihydro-1-methyl-5-[3-[4-(3-indolyl)piperidine-1-yl]propyl] [1,2,4]triazolo[4,3-a]quinoxaline], for which the inhibition at 50 mg/kg in test [1] turned out to be 58%; in the test on histamine, 65%. Besides, the IC50 on PAF receptor (setting [3]) was 3990 nM.
For the compound `CCc1nnc2n1-c1ccccc1N(CCCN1CCC(c3c[nH]c4ccccc34)CC1)C2` [Compound 52, 1-ethyl-4,5-dihydro-5-[3-[4-(3-indolyl)piperidin-1-yl]propyl] [1,2,4]triazolo[4,3-a]quinoxaline], the inhibition at 50 mg/kg in test [1] was 65%; with histamine, 47%. The IC50 was 12300 nM at rabbit platelets and 7940 nM at PAF receptor (setting [3]). The Post/Pre in test [2] (Dose 1 mg/kg) amounted to 1.37.
As for `Cc1nnc2n1-c1ccccc1N(CCCN1CCC(Nc3nc4ccccc4n3Cc3ccc(F)cc3)CC1)C2` [Compound 73, 4,5-dihydro-1-methyl-5-[3-[4-[1-(4-fluorobenzyl)benzimidazol-2-ylamino]-piperidin-1-yl]propyl][1,2,4]triazolo[4,3-a] quinoxaline], the IC50 on rabbit platelets is 8170 nM; on PAF receptor (setting [3]) it was 5630 nM. In addition, the Post/Pre in test [2] (Dose 1 mg/kg) is 1.18.
`Cc1nnc2n1-c1ccccc1N(CCCN1CCC(C(O)(c3ccc(F)cc3)c3ccc(F)cc3)CC1)C2` [Compound 75, 4,5-dihydro-1-methyl-5-[3-[4-[hydroxybis(4-fluorophenyl)methyl]piperidin-1-yl]propyl][1,2,4]triazolo[4,3-a] quinoxaline tartaric acid salt]: the inhibition at 50 mg/kg worked out at 42% in test [1] and 19% in the test on histamine. Further, the IC50 at rabbit platelets was 309 nM; at PAF receptor (setting [3]) it was 603 nM.
For `Cc1nnc2n(CCCN3CCN(C(c4ccccc4)c4ccccc4)CC3)c3ccccc3n12` [Compound 189, 3-methyl-9-[3-[4-(diphenylmethyl)piperazin-1-yl]propyl]-9H-[1,2,4]triazolo[4,3-a]benzimidazole dihydrochloride] the same measures were 43%, 57%, 577 nM and 260 nM.
As for `Cc1nnc2n(CCCN3CCC(c4c[nH]c5ccccc45)CC3)c3ccccc3n12.O=C(O)/C=C/C(=O)O` [Compound 192, 3-methyl-9-[3-[4-(3-indolyl)piperidin-1-yl]propyl]-9H-[1,2,4]triazolo[4,3-a]benzimidazole fumaric acid salt], the inhibition at 50 mg/kg in test [1] is 74%. Moreover, the IC50 at PAF receptor (setting [3]) is 1310 nM. Besides, in test [2] (Dose 1 mg/kg), the Post/Pre was 1.81.
`Cc1nnc2n(CCCN3CCC(C(O)(c4ccccc4)c4ccccc4)CC3)c3ccccc3n12` [Compound 198, 3-methyl-9-[3-[4-(hydroxydiphenylmethyl)piperidin-1-yl]propyl]-9H-[1,2,4]triazolo[4,3-a]benzimidazole fumaric acid salt]: the values for the IC50 on rabbit platelets and at PAF receptor (setting [3]) were 124 nM and 353 nM, respectively.
On to `Cc1nnc2n(CCCN3CCC(C(O)(c4ccc(F)cc4)c4ccc(F)cc4)CC3)c3ccccc3n12` [Compound 199, 3-methyl-9-[3-[4-[hydroxybis(4-fluorophenyl)methyl]piperidin-1-yl]propyl]-9H-[1,2,4]triazolo[4,3-a]benzimidazole fumaric acid salt], for which the inhibition at 50 mg/kg in test [1] was 48%. In addition, the IC50 was 190 nM on rabbit platelets and 55.4 nM at PAF receptor (setting [3]).
Regarding `Cc1nnc2n(CCCN3CCC(OC(c4ccccc4)c4ccccc4)CC3)c3ccccc3n12` [Compound 200, 3-methyl-9-[3-[4-(diphenylmethoxy)piperidin-1-yl]propyl]-9H-[1,2,4]triazolo[4,3-a]benzimidazole fumaric acid salt], the IC50 on rabbit platelets is 38.6 nM; on PAF receptor (setting [3]), 50.4 nM.
For `Cc1nnc2n(CCCN3CCC(=C(c4ccccc4)c4ccccc4)CC3)c3ccccc3n12` [Compound 201, 3-methyl-9-[3-[4-(diphenylmethylene)piperidin-1-yl]propyl]-9H-[1,2,4]triazolo[4,3-a]benzimidazole fumaric acid salt] the same measures were 277 nM and 294 nM.
For `Cc1nnc2n(CCCN3CCC(c4c[nH]c5ccccc45)CC3)c3cc(Cl)ccc3n12` [Compound 205, 3-methyl-7-chloro-9-[3-[4-(3-indolyl)piperidin-1-yl]propyl]-9H-[1,2,4]triazolo[4,3-a]benzimidazole] the same measures were 5150 nM and 2910 nM.
For `Cc1nnc2n(CCCN3CCC(=C4c5ccccc5C=Cc5ccccc54)CC3)c3ccccc3n12` [Compound 206, 3-methyl-9-[3-[4-(5H-dibenzo[a,d]cyclohepten-5-ylidene)piperidin-1-yl]propyl]-9H-[1,2,4]triazolo[4,3-a]benzimidazole] the same measures were 4320 nM and 1810 nM.
Regarding `Cc1nnc2n1-c1ccccc1N(CCCN1CCN(C(c3ccccc3)c3ccc(Cl)cc3)CC1)CC2` (stereo not drawn) [Compound 214, 5,6-dihydro-1-methyl-6-[3-[4-[(4-chlorophenyl)phenylmethyl]piperazin-1-yl]propyl]-4H[1,2,4]triazolo[4,3-a][1,5]benzodiazepine fumaric acid salt], the inhibition at 50 mg/kg in test [1] came to 75%. The IC50 at rabbit platelets is 6220 nM.
`Cc1nnc2n1-c1sc(CCC(=O)N3CCOCC3)cc1C(c1ccccc1Cl)=NC2` [WEB2086, reference compound]: the IC50 on PAF receptor was 110 nM. Besides, in test [2] (Dose 3 mg/kg), the Post/Pre is 0.89.

Usually inhibition stands for the change of the read-out against control, counted positive when it falls. In general, IC50 refers to the concentration at which inhibition is half-maximal.
